Assay [1] has as its system S. aureus RN4220 [pIP1801]. Put plainly: MIC of pristinamycin IIA for S. aureus RN4220 carrying pIP1801 (vatE). It is filed as cell-based. As to conditions: Staphylococcus aureus; S. aureus recipient RN4220 with pIP1801 (pOX7 carrying vatE), introduced by electroporation. As for the experimental part:
(§1) A DNA fragment of 858 nt containing vatE (nt 104 to nt 961, Accession No. AF153312) was amplified from pIP1798 and inserted between the EcoRI and SmaI sites of the shuttle vector, pOX7 (11). The resulting plasmid, pIP1801, introduced by electroporation in the S. aureus recipient, RN4220 (15), conferred resistance to pristinamycin IIA (MICs: 2 μg/ml for RN4220 [pOX7] and 8 μg/ml for RN4220 [pIP1801]).

The test system of the next assay is S. aureus RN4220 [pOX7]. The assay is described as follows: MIC of pristinamycin IIA for S. aureus RN4220 carrying the shuttle vector pOX7. It is filed as cell-based. As to conditions: Staphylococcus aureus; S. aureus recipient RN4220 with empty shuttle vector pOX7. The protocol:
as §1

In the case of `CC1=C\[C@@H](O)CC(=O)Cc2nc(co2)C(=O)N2CCC=C2C(=O)O[C@H](C(C)C)[C@H](C)/C=C/C(=O)NC\C=C\1` [pristinamycin IIA], the MIC (as a rule, the smallest concentration in the dilution series that meets the test's criterion for growth inhibition) worked out at 8 µg/mL in assay [1] and 2 µg/mL in the assay on S. aureus RN4220 [pOX7].

For the origin of these results see US6905865B1, “Detection of a gene, vatE, encoding an acetyltransferase inactivating streptogramin” (Institut Pasteur, priority 1999, dated 2005).
